Test results as given in US10934298B2, “Substituted pyrazolo[1,5-a]pyrimidines for the treatment of medical disorders” (BIAL—BioTech Investments, Inc., priority 2016, dated 2021).

Target: T1, glucocerebrosidase (Gcase) (Homo sapiens, UniProt P04062)
T1 construct: micellar solution containing 10 nM GCase and 100 nM saposin C
T1 sequence (P04062 40-536): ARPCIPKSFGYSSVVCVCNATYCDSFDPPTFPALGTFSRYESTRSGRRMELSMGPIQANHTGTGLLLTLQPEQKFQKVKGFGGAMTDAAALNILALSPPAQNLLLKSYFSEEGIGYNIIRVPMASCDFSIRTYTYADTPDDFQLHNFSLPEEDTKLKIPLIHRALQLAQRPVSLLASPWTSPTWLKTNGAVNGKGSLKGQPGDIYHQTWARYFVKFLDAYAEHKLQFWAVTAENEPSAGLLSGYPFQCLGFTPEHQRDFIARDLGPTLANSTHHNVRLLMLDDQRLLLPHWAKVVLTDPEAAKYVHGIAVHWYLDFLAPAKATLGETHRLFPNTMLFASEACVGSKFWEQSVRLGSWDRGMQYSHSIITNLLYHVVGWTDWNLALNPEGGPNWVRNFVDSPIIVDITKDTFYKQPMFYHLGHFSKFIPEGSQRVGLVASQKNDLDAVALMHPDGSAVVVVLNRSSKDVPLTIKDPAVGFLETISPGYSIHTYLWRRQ
Experiment: Glucocerebrosidase (Gcase) activation assay with 4-methylumbelliferyl-beta-D-glucopyranoside substrate, saposin C and phosphatidylserine/triton micelles, fluorescence readout
Format: biochemical
Summary of the method: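 Fluorescence (ex 365 nm, em 440 nm) read after glycine pH 12.5 stop of a 15 min room-temperature reaction. GCase 10 nM plus saposin C 100 nM in PS/triton micelles, pH 4.7, preincubated 30 min with compound; substrate solution held 2 mM 4-MU-beta-glucoside. Screened at 1.0 and 0.1 μM; 8-point, 3-fold curves from 5 μM top.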

Row | Compound | Percent Gcase Activation, 0.1 μM Test Compound | Percent Gcase Activation, 1 μM Test Compound
1 | Cc1cc(-c2cccnc2C(F)(F)F)nc2c(C(=O)N[C@H](C3CC3)C(F)(F)F)cnn12 [III-355] | *** (greater than 20% Gcase activation) | +++ (Gcase activation greater than 60%)
2 | Cc1cc(-c2cccnc2C(F)(F)F)nc2c(C(=O)N[C@@H](C3CC3)C(F)(F)F)cnn12 [III-356] | *** (greater than 20% Gcase activation) | +++ (Gcase activation greater than 60%)
3 | Cc1cc(N2CC(C)(C)N(C)C2=O)nc2c(C(=O)N[C@H](C3CC3)C(F)(F)F)cnn12 [III-357] | ** (Gcase activation in the range of 10% up to 20%) | +++ (Gcase activation greater than 60%)
4 | Cc1cc(N2CC(C)(C)OC2=O)nc2c(C(=O)N[C@H](C3CC3)C(F)(F)F)cnn12 [III-358] | * (less than 10% Gcase activation) | ++ (Gcase activation in the range of 30% up to 60%)
5 | Cc1cc(-c2ccc(F)cc2)nc2c(C(=O)N[C@H](C)C(F)(F)F)cnn12 [III-359] | ** (Gcase activation in the range of 10% up to 20%) | +++ (Gcase activation greater than 60%)
6 | Cc1cc(-c2ccc(F)cc2)nc2c(C(=O)N[C@@H](C)C(F)(F)F)cnn12 [III-360] | *** (greater than 20% Gcase activation) | +++ (Gcase activation greater than 60%)
7 | Cc1cc(-c2cccc(F)c2)nc2c(C(=O)N[C@H](C)C(F)(F)F)cnn12 [III-361] | *** (greater than 20% Gcase activation) | +++ (Gcase activation greater than 60%)
8 | Cc1cc(-c2cccc(F)c2)nc2c(C(=O)N[C@@H](C)C(F)(F)F)cnn12 [III-362] | *** (greater than 20% Gcase activation) | +++ (Gcase activation greater than 60%)
9 | Cc1cc(-c2cncc(C#N)c2)nc2c(C(=O)N[C@H](C3CC3)C(F)(F)F)cnn12 [III-363] | *** (greater than 20% Gcase activation) | +++ (Gcase activation greater than 60%)
10 | Cc1cc(-c2cncc(C#N)c2)nc2c(C(=O)N[C@@H](C3CC3)C(F)(F)F)cnn12 [III-364] | ** (Gcase activation in the range of 10% up to 20%) | +++ (Gcase activation greater than 60%)
11 | Cc1cc(-c2cccnc2C#N)nc2c(C(=O)N[C@H](C3CC3)C(F)(F)F)cnn12 [III-365] | ** (Gcase activation in the range of 10% up to 20%) | +++ (Gcase activation greater than 60%)
12 | Cc1cc(-c2cccnc2C#N)nc2c(C(=O)N[C@@H](C3CC3)C(F)(F)F)cnn12 [III-366] | *** (greater than 20% Gcase activation) | +++ (Gcase activation greater than 60%)
13 | Cc1cc(-c2ccc(C#N)nc2)nc2c(C(=O)N[C@H](C3CC3)C(F)(F)F)cnn12 [III-367] | ** (Gcase activation in the range of 10% up to 20%) | +++ (Gcase activation greater than 60%)
14 | Cc1cc(-c2ccc(C#N)nc2)nc2c(C(=O)N[C@@H](C3CC3)C(F)(F)F)cnn12 [III-368] | ** (Gcase activation in the range of 10% up to 20%) | +++ (Gcase activation greater than 60%)
15 | Cc1cc(-c2cncc(C#N)c2)nc2c(C(=O)NC(C)(C)C3CC3)cnn12 [III-369] | ** (Gcase activation in the range of 10% up to 20%) | +++ (Gcase activation greater than 60%)
16 | Cc1cc(-c2ccc(C#N)nc2)nc2c(C(=O)NC(C)(C)C3CC3)cnn12 [III-370] | * (less than 10% Gcase activation) | +++ (Gcase activation greater than 60%)
17 | Cc1cc(-c2cccnc2C#N)nc2c(C(=O)NC(C)(C)C3CC3)cnn12 [III-371] | * (less than 10% Gcase activation) | +++ (Gcase activation greater than 60%)
18 | Cc1ccc(-c2cc(C)n3ncc(C(=O)N[C@H](C4CC4)C(F)(F)F)c3n2)c(F)n1 [III-372] | *** (greater than 20% Gcase activation) | +++ (Gcase activation greater than 60%)
19 | Cc1ccc(-c2cc(C)n3ncc(C(=O)N[C@@H](C4CC4)C(F)(F)F)c3n2)c(F)n1 [III-373] | *** (greater than 20% Gcase activation) | +++ (Gcase activation greater than 60%)

Row | Compound | Percent Gcase Activation, 0.1 μM Test Compound | Percent Gcase Activation, 1 μM Test Compound
20 | Cc1cnc(F)c(-c2cc(C)n3ncc(C(=O)N[C@H](C4CC4)C(F)(F)F)c3n2)c1 [III-374] | *** (greater than 20% Gcase activation) | +++ (Gcase activation greater than 60%)
21 | Cc1cnc(F)c(-c2cc(C)n3ncc(C(=O)N[C@@H](C4CC4)C(F)(F)F)c3n2)c1 [III-375] | *** (greater than 20% Gcase activation) | +++ (Gcase activation greater than 60%)
22 | Cc1ncccc1-c1cc(C)n2ncc(C(=O)N[C@H](C3CC3)C(F)(F)F)c2n1 [III-376] | * (less than 10% Gcase activation) | + (less than 30% Gcase activation)
23 | Cc1ncccc1-c1cc(C)n2ncc(C(=O)N[C@@H](C3CC3)C(F)(F)F)c2n1 [III-377] | * (less than 10% Gcase activation) | + (less than 30% Gcase activation)
24 | Cc1ncc(F)cc1-c1cc(C)n2ncc(C(=O)N[C@H](C3CC3)C(F)(F)F)c2n1 [III-378] | ** (Gcase activation in the range of 10% up to 20%) | +++ (Gcase activation greater than 60%)
25 | Cc1ncc(F)cc1-c1cc(C)n2ncc(C(=O)N[C@@H](C3CC3)C(F)(F)F)c2n1 [III-379] | ** (Gcase activation in the range of 10% up to 20%) | +++ (Gcase activation greater than 60%)
26 | Cc1ncc(-c2cc(C)n3ncc(C(=O)N[C@H](C4CC4)C(F)(F)F)c3n2)cc1F [III-380] | *** (greater than 20% Gcase activation) | +++ (Gcase activation greater than 60%)
27 | Cc1ncc(-c2cc(C)n3ncc(C(=O)N[C@@H](C4CC4)C(F)(F)F)c3n2)cc1F [III-381] | *** (greater than 20% Gcase activation) | +++ (Gcase activation greater than 60%)
28 | Cc1cccc(-c2cc(C)n3ncc(C(=O)N[C@@H](C4CC4)C(F)(F)F)c3n2)n1 [III-382] | *** (greater than 20% Gcase activation) | +++ (Gcase activation greater than 60%)
29 | C#Cc1cncc(-c2cc(C)n3ncc(C(=O)N[C@@H](C4CC4)C(F)(F)F)c3n2)c1 [III-383] | *** (greater than 20% Gcase activation) | +++ (Gcase activation greater than 60%)
30 | COCOc1cccc(-c2cc(C)n3ncc(C(=O)N[C@@H](C4CC4)C(F)(F)F)c3n2)n1 [III-384] | ** (Gcase activation in the range of 10% up to 20%) | +++ (Gcase activation greater than 60%)
31 | Cc1nsc(C)c1-c1cc(C)n2ncc(C(=O)N[C@H](C3CC3)C(F)(F)F)c2n1 [III-385] | * (less than 10% Gcase activation) | + (less than 30% Gcase activation)
32 | Cc1nsc(C)c1-c1cc(C)n2ncc(C(=O)N[C@@H](C3CC3)C(F)(F)F)c2n1 [III-386] | * (less than 10% Gcase activation) | + (less than 30% Gcase activation)
33 | Cc1sncc1-c1cc(C)n2ncc(C(=O)N[C@H](C3CC3)C(F)(F)F)c2n1 [III-387] | *** (greater than 20% Gcase activation) | +++ (Gcase activation greater than 60%)
34 | Cc1sncc1-c1cc(C)n2ncc(C(=O)N[C@@H](C3CC3)C(F)(F)F)c2n1 [III-388] | *** (greater than 20% Gcase activation) | +++ (Gcase activation greater than 60%)
35 | Cc1nscc1-c1cc(C)n2ncc(C(=O)N[C@H](C3CC3)C(F)(F)F)c2n1 [III-389] | *** (greater than 20% Gcase activation) | +++ (Gcase activation greater than 60%)
36 | Cc1nscc1-c1cc(C)n2ncc(C(=O)N[C@@H](C3CC3)C(F)(F)F)c2n1 [III-390] | *** (greater than 20% Gcase activation) | +++ (Gcase activation greater than 60%)
37 | Cc1cc(-c2nnc(C(C)C)o2)nc2c(C(=O)N[C@H](C3CC3)C(F)(F)F)cnn12 [III-391] | ** (Gcase activation in the range of 10% up to 20%) | +++ (Gcase activation greater than 60%)
